Test results as given in ChEMBL document CHEMBL1201862, “PubChem BioAssay data set” (2004).
Values joined by “and” are separate entries in the source; they are usually repeats but may differ in a detail not shown here. Identical values can stand only once. Counter-ions that a name gives are not always drawn. Active and inactive are the calls of the source.

Columns and labels:
[1] = microbe, parasite or virus in culture; format: functional; conditions: Mycobacterium tuberculosis
[2] = target: Exodeoxyribonuclease V (Escherichia coli (strain K12), UniProt P04993+P07648+P08394); assay: E. coli RecBCD inhibitors, dose response, counter-screen for AddAB inhibitor project, absorbance, V66 E. coli, mutant T4 phage (AID 492957); format: functional, cell-based, Escherichia coli str. K-12 substr. MG1655
[3] = Counterscreen for AddAB inhibitors: absorbance-based bacterial cell-based high throughput dose response assay for inhibitors of bacterial viability. [Related pubchem assays (depositor defined):AID435030, AID449728, AID449731, AID488942, AID488955, AID488956]; format: functional
[4] = target: Intestinal-type alkaline phosphatase (Homo sapiens, UniProt P09923); assay: Dose Response confirmation of uHTS hits from a small molecule inhibitors of human intestinal alkaline phosphatase via a luminescent assay. [Related pubchem assays (depositor defined):AID2544, AID2574]; format: functional
[5] = system: Streptococcus sp. 'group A'; assay: growth inhibition of control SK(-) GAS strain, dose response, counter-screen for streptokinase expression inhibitor project, luminescence, kanamycin, BacTiterGlo, confirmation (AID 1900); format: functional, organism-based
[6] = target: 5-hydroxytryptamine receptor 1A (Homo sapiens, UniProt P08908); format: functional
[7] = target: T1, Zinc finger protein mex-5 (Caenorhabditis elegans, UniProt Q9XUB2); assay: MEX-5/TCR-2 RNA interaction inhibitors, dose response, biochemical, C. elegans, fluorescence polarization (AID 1960)
T1 sequence (Q9XUB2 whole entry): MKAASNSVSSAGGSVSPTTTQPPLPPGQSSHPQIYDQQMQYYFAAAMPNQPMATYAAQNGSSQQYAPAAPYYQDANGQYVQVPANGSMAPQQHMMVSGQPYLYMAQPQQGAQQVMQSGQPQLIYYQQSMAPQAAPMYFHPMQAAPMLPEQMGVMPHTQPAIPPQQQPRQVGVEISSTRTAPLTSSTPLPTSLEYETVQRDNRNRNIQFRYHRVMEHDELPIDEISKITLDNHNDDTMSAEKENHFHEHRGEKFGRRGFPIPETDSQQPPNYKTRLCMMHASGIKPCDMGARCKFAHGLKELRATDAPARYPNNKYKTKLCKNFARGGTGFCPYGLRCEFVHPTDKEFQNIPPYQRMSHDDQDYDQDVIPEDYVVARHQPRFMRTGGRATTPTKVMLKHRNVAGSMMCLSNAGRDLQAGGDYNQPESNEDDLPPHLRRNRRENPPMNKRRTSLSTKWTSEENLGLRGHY

[8] = target: Induced myeloid leukemia cell differentiation protein Mcl-1 (Homo sapiens, UniProt Q07820); assay: MCL1-BIM BH3 interaction inhibitors, dose response, biochemical, fluorescence polarization, BIM-BH3 peptide, 1536-well (AID 2217)
[9] = target: Serine/threonine-protein kinase pim-1 (Homo sapiens, UniProt P11309); format: functional
[10] = target: MAP kinase-activated protein kinase 2 (Homo sapiens, UniProt P49137); format: functional;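 note: measured as one member of a kinome-wide kinase panel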
[11] = target: Ephrin type-A receptor 2 (Homo sapiens, UniProt P29317); format: functional;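 note: EPHA2 tested as one member of a kinome-wide kinase panel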
[12] = target: Macrophage-stimulating protein receptor (Homo sapiens, UniProt Q04912); assay: Navigating the Kinome. Panel member name: MST1R; format: functional
[13] = target: Activated CDC42 kinase 1 (Homo sapiens, UniProt Q07912); assay: Navigating the Kinome. Panel member name: ACK1; format: functional
[14] = target: Serine/threonine-protein kinase PAK 1 (Homo sapiens, UniProt Q13153); format: functional
[15] = target: Serine/threonine-protein kinase BRSK1 (Homo sapiens, UniProt Q8TDC3); format: functional;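 note: measured within a kinome-wide kinase panel, with the target listed as KIAA1811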
[16] = target: cGMP-dependent protein kinase 1 (Homo sapiens, UniProt Q13976); format: functional;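 note: value from a kinome panel screen with PRKG1 as the panel member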
[17] = target: Mitogen-activated protein kinase 13 (Homo sapiens, UniProt O15264); format: functional
[18] = target: Cell division cycle 7-related protein kinase (Homo sapiens, UniProt O00311); format: functional;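 note: value obtained from a kinome-wide kinase panel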
[19] = target: Cyclin-dependent kinase 5 (Homo sapiens, UniProt Q00535); format: functional;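 note: CDK5 measured as one member of a kinase profiling panel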
[20] = target: Casein kinase II subunit alpha (Homo sapiens, UniProt P68400); format: functional
[21] = target: Ribosomal protein S6 kinase beta-1 (Homo sapiens, UniProt P23443); format: functional;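 note: measured as one member of a kinome-wide profiling panel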
[22] = target: Serine/threonine-protein kinase Chk1 (Homo sapiens, UniProt O14757); format: functional;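 note: measured as one member of a kinome-wide kinase profiling panel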
[23] = target: Cyclin-dependent kinase 8 (Homo sapiens, UniProt P49336); assay: Navigating the Kinome. Panel member name: CDK8; format: functional
[24] = target: Aurora kinase A (Homo sapiens, UniProt O14965); format: functional;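 note: value from the Navigating the Kinome kinase panel profiling, panel entry STK6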
[25] = target: Dual specificity protein kinase CLK2 (Homo sapiens, UniProt P49760); format: functional
[26] = target: Tyrosine-protein kinase Lyn (Homo sapiens, UniProt P07948); format: functional;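 note: lyn as one member of a kinase panel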
[27] = target: Dual specificity tyrosine-phosphorylation-regulated kinase 1A (Homo sapiens, UniProt Q13627); format: functional;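 note: measured against DYRK1A as one member of a broad kinome profiling panel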
[28] = target: Tyrosine-protein kinase receptor TYRO3 (Homo sapiens, UniProt Q06418); format: functional;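 note: TYRO3 value obtained as one member of a kinome-wide profiling panel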
[29] = target: Tyrosine-protein kinase BTK (Homo sapiens, UniProt Q06187); format: functional
[30] = target: Activin receptor type-1 (Homo sapiens, UniProt Q04771); assay: Navigating the Kinome. Panel member name: ACVR1; format: functional
[31] = target: Hepatocyte growth factor receptor (Homo sapiens, UniProt P08581); format: functional;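 note: kinase panel profiling across the kinome, with MET as the panel member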
[32] = target: Serine/threonine-protein kinase 3 (Homo sapiens, UniProt Q13188); format: functional;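 note: measured as one member of a kinome-wide kinase panel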
[33] = target: Casein kinase I isoform delta (Homo sapiens, UniProt P48730); format: functional;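 note: measured as one member (CSNK1D) of a kinome panel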

Chain of Macrophage-stimulating protein receptor (Q04912 25-304 limits assumed): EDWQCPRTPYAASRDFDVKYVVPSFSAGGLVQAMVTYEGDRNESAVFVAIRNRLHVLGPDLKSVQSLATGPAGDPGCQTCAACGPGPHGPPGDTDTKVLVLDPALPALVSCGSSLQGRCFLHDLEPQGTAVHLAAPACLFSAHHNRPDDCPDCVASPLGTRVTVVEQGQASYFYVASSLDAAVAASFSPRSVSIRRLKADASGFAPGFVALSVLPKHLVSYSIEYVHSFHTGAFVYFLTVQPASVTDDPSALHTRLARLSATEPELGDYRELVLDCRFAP
Chain of Macrophage-stimulating protein receptor (Q04912 310-1400 limits assumed): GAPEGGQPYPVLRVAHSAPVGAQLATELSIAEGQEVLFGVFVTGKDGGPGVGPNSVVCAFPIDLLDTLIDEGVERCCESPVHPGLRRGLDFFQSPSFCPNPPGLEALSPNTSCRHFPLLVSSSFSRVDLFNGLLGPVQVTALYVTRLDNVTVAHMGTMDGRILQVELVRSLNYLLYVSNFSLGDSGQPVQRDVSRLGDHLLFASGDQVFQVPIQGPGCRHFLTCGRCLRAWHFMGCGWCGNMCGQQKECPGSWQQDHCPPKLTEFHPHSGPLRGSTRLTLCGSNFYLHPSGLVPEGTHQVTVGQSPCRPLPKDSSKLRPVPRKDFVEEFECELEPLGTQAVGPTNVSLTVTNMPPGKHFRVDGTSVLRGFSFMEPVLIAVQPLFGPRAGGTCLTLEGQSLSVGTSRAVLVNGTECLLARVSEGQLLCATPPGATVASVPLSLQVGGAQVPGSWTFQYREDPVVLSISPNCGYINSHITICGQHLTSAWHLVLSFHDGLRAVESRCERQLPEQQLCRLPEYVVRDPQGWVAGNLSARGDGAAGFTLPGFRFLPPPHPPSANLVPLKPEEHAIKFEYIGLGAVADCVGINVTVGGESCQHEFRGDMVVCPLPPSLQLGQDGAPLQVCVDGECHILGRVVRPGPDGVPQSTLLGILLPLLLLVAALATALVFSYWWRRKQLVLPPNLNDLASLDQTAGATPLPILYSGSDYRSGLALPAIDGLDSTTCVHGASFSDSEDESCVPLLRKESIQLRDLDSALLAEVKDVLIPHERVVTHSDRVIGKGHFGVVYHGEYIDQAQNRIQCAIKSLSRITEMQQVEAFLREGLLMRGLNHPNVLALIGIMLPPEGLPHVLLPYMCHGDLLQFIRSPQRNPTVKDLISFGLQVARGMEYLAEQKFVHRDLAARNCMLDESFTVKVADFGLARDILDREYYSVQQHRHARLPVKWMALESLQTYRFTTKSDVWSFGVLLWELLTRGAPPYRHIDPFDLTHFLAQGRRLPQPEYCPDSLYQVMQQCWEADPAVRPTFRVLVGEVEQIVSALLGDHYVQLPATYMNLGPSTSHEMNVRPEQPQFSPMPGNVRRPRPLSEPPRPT
Chain of Aurora kinase A (O14965 whole entry): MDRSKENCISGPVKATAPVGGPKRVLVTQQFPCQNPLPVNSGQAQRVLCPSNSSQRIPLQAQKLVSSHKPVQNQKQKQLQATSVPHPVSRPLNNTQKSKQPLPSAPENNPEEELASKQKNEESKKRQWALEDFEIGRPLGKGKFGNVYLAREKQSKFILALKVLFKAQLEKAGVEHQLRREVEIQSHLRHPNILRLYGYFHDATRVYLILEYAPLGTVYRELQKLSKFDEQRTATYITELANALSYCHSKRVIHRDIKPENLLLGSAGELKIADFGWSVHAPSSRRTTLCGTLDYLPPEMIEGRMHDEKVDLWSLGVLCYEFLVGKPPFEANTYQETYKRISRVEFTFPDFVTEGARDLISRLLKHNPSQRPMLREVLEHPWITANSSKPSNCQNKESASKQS
Chain of Induced myeloid leukemia cell differentiation protein Mcl-1 (Q07820 whole entry): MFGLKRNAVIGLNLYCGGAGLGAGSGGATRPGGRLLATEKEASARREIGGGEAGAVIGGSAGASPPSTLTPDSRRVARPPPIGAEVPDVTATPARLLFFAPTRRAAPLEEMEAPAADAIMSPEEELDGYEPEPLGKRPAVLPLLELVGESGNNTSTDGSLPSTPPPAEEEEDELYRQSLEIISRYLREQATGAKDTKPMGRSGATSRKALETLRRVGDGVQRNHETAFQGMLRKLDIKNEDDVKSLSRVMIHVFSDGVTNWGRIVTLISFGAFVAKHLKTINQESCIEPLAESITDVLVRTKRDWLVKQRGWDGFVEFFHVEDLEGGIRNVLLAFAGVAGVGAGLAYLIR
Chain of Hepatocyte growth factor receptor (P08581 whole entry): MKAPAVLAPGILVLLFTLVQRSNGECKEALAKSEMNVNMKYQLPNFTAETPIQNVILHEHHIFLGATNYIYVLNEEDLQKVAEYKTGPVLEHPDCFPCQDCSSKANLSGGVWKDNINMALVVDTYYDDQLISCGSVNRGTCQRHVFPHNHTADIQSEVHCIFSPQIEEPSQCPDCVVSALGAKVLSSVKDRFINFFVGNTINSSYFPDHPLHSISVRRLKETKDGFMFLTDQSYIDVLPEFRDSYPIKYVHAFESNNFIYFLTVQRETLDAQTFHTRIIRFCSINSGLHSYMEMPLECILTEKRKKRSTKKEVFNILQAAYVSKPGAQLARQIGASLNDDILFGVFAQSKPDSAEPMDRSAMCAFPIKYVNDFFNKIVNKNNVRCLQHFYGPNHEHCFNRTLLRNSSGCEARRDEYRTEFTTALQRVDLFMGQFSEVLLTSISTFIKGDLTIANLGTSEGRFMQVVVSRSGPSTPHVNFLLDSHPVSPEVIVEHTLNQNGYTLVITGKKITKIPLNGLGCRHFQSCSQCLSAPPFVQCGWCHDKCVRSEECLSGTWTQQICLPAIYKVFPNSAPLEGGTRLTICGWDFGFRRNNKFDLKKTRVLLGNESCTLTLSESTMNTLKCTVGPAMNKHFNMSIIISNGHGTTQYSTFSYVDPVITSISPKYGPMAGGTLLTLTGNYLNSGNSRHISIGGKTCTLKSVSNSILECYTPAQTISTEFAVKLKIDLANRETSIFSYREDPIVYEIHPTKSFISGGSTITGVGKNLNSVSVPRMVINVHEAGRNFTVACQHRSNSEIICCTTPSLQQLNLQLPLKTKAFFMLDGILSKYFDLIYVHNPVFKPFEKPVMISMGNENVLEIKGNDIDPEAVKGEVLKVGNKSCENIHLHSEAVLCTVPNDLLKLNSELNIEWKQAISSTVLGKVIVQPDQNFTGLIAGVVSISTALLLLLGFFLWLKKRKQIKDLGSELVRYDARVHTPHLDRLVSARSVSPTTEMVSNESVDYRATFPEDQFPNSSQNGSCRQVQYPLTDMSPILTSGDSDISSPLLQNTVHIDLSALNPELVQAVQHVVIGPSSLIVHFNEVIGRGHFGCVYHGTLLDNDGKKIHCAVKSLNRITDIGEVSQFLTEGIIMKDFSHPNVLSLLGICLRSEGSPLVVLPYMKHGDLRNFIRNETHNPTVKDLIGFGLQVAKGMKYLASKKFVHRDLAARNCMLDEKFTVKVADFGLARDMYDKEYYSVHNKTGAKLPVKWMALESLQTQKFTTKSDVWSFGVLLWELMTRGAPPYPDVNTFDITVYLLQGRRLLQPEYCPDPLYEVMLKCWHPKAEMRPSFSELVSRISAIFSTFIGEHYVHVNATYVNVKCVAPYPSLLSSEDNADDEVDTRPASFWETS
Chain of Casein kinase II subunit alpha (P68400 whole entry): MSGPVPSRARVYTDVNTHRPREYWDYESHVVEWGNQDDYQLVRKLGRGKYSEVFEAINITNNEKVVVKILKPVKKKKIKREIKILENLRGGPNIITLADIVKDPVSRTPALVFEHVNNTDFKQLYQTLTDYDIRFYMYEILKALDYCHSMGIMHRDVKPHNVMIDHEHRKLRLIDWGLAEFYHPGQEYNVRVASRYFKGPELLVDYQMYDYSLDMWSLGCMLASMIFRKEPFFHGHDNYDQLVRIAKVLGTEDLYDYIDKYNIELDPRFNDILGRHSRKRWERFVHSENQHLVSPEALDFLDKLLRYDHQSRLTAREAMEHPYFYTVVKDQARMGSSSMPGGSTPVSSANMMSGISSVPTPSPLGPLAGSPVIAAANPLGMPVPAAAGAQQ
Chain of 5-hydroxytryptamine receptor 1A (P08908 whole entry): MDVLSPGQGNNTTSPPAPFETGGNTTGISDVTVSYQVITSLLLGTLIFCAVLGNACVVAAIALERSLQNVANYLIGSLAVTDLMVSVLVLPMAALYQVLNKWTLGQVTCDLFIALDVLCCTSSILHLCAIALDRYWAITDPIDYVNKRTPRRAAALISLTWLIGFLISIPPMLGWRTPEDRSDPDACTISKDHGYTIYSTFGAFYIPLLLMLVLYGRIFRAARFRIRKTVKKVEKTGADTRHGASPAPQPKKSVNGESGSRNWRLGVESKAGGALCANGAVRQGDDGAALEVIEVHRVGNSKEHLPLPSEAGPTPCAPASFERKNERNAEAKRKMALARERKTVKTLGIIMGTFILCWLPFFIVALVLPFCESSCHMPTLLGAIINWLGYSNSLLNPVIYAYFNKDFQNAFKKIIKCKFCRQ
Chain of MAP kinase-activated protein kinase 2 (P49137 whole entry): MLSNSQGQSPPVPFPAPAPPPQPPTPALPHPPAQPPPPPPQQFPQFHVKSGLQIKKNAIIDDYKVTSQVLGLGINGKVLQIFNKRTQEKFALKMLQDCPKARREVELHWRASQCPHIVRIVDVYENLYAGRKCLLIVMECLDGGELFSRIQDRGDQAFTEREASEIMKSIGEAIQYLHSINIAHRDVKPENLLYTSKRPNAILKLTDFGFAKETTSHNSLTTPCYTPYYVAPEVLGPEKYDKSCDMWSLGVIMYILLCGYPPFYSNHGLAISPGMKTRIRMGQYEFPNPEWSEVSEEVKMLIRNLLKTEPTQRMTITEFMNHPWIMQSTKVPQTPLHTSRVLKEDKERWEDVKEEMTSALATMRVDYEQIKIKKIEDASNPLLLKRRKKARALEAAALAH
Chain of Cyclin-dependent kinase 5 (Q00535 whole entry): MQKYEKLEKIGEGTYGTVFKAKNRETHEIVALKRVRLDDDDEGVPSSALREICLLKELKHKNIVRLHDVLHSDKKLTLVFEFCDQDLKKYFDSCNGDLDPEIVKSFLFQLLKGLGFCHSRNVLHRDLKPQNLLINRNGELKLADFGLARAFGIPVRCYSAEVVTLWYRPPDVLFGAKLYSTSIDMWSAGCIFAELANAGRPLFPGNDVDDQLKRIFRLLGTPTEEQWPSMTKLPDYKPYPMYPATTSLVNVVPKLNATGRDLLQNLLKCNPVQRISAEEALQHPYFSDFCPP

**Q.** For `CCC(C)n1c(NC(=O)c2ccccc2)c(C#N)c2nc3ccccc3nc21` (stereo not drawn), which CC50 [1] is on record?
**A.** 28.1 µM (active)

**Q.** Which results are given for `CCN1/C(=C\c2ccc3ccccc3[n+]2CC)Sc2cc(C)ccc21`?
**A.** IC50 [2]: 72.8 µM (inactive); IC50 [3]: 37.5 µM (inactive); IC50 [4]: 16.1 µM (inactive)

**Q.** Which EC50 [5] does the source give for `CCCCCCCCCCOC(=O)C[n+]1c(COc2ccc(C)cc2)n(C)c2ccccc21` here?
**A.** 6.2 µM (active)

**Q.** For `CC[C@@H](CO)NC(=O)[C@@H]1C=C2c3cccc4c3c(cn4C)C[C@H]2N(C)C1` [METHYSERGIDE MALEATE], which EC50 [6] is on record?
**A.** 1.07 µM (active)

**Q.** And the EC50 [7]?
**A.** 12.3 µM (active) and 20 µM (inconclusive)

**Q.** What about the IC50 [8] of the same compound?
**A.** 20.4 µM (not active)

**Q.** Which Ki [9] does the source give for `CN1CCN(c2nc(C3=C(c4c[nH]c5ccccc45)C(=O)NC3=O)c3ccccc3n2)CC1` [SOTRASTAURIN] here?
**A.** 0.158 µM (active)

**Q.** And the Ki [10]?
**A.** > 7.94 µM (inactive)

**Q.** What about the Ki [11] of the same compound?
**A.** > 3.16 µM (inactive)

**Q.** What about the Ki [12] of the same compound?
**A.** 0.158 µM (active)

**Q.** What about the Ki [13] of the same compound?
**A.** > 3.98 µM (inactive)

**Q.** And the Ki [14]?
**A.** > 10 µM (inactive)

**Q.** What about the Ki [15] of the same compound?
**A.** 2.51 µM (active)

**Q.** And the Ki [16]?
**A.** 0.794 µM (active)

**Q.** What about the Ki [17] of the same compound?
**A.** > 7.94 µM (inactive)

**Q.** What about the Ki [18] of the same compound?
**A.** > 1.26 µM (inactive)

**Q.** What about the Ki [19] of the same compound?
**A.** 3.16 µM (active)

**Q.** And the Ki [20]?
**A.** > 6.31 µM (inactive)

**Q.** What about the Ki [21] of the same compound?
**A.** 0.158 µM (active)

**Q.** What about the Ki [22] of the same compound?
**A.** > 5.01 µM (inactive)

**Q.** What about the Ki [23] of the same compound?
**A.** > 3.98 µM (inactive)

**Q.** What about the Ki [24] of the same compound?
**A.** > 1.58 µM (inactive)

**Q.** And the Ki [25]?
**A.** > 2.51 µM (inactive)

**Q.** And the Ki [26]?
**A.** > 1.58 µM (inactive)

**Q.** And the Ki [27]?
**A.** > 3.98 µM (inactive)

**Q.** What about the Ki [28] of the same compound?
**A.** > 2.51 µM (inactive)

**Q.** What about the Ki [29] of the same compound?
**A.** > 3.98 µM (inactive)

**Q.** What about the Ki [30] of the same compound?
**A.** > 3.98 µM (inactive)

**Q.** And the Ki [31]?
**A.** > 2.51 µM (inactive)

**Q.** What about the Ki [32] of the same compound?
**A.** 0.126 µM (active)

**Q.** What about the Ki [33] of the same compound?
**A.** > 7.94 µM (inactive)
